The values that follow are results of earlier work, collected in patent US20090318549A1, “COMBINATION TREATMENT OF GLAUCOMA” (QLT Plug Delivery, Inc., priority 2008, published 2009).

The conditions of data set [1]: man, after topical administration.

The structures appear in SMILES notation.

As to `CC(C)OC(=O)CCC/C=C\C[C@@H]1[C@@H](CC[C@@H](O)CCc2ccccc2)[C@H](O)C[C@@H]1O` [Latanoprost, isopropyl-(Z)-7[(1R,2R,3R,5S)3,5-dihydroxy-2-[(3R)-3-hydroxy-5-phenylpentyl]cyclopentyl]-5-heptenoate], where the note is “acetone, ethanol, ethyl acetate, isopropanol, methanol, octanol”, the “solubility in acetone, ethanol, ethyl acetate, isopropanol, methanol and octanol” value is on record as “freely soluble”. In addition, the solubility in acetonitrile entry (acetonitrile) is listed as “very soluble”. In addition, under “water”, the solubility in water entry was “practically insoluble”. Also, the “time at which the peak concentration in the aqueous humor is reached” value in data set [1] was “about two”.
